Test [1] addresses GDP-bound KRAS wild-type protein (Homo sapiens, UniProt P01116). The test is described as follows: Binding to KRAS by surface plasmon resonance (SPR), Single Cycle Kinetics. The conditions noted are these: SPR, Single Cycle Kinetics, GDP-bound KRAS wild-type protein; read-out: KRAS KD.
Test [2] has as its system human lung cancer strain NCI-H441. As to the kind of experiment: cells. The conditions noted are these: NCI-H441, 96 h, read-out: NCI-H441 IC50 (nM), NCI-H441 cell proliferation, 4 days, CellTiter-Glo.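 Note: cell proliferation inhibition after four days measured by CellTiter-Glo.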
The target of test [3] is GDP-bound HRAS wild-type protein (Homo sapiens, UniProt P01112). The test is described as follows: Binding to HRAS by surface plasmon resonance (SPR), Single Cycle Kinetics. Particulars: ratio of KD for GDP-bound HRAS wild-type protein to KD for KRAS, SPR.
GDP-bound HRAS wild-type protein, sequence (P01112 whole entry): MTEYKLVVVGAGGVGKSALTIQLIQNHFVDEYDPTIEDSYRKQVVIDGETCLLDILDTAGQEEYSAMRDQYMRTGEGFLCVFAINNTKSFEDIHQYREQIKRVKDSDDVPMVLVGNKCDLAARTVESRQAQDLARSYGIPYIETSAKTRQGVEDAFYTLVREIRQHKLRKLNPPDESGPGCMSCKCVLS
In test [4] the target is GDP-bound NRAS wild-type protein (Homo sapiens, UniProt P01111). As to the kind of experiment: Binding to NRAS by surface plasmon resonance (SPR), Single Cycle Kinetics. The conditions noted are these: ratio of KD for GDP-bound NRAS wild-type protein to KD for KRAS, SPR.
GDP-bound NRAS wild-type protein, sequence (P01111 whole entry): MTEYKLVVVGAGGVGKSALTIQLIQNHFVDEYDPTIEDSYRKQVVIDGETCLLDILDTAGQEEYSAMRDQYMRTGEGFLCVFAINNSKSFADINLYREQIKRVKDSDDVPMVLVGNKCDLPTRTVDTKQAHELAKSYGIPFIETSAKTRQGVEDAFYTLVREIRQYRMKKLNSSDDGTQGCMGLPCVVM

GDP-bound KRAS wild-type protein, sequence (P01116 whole entry): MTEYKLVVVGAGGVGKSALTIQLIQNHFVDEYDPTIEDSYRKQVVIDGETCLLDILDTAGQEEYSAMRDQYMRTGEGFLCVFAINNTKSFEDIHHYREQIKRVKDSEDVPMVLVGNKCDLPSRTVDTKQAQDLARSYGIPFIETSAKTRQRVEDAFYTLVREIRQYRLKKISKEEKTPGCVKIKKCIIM

As to `CCC[C@H]1C(=O)N[C@@H]([C@@H](C)CC)C(=O)N(C)CC(=O)N(C)[C@H]2C/C=C\CCN(C2=O)[C@@H](Cc2ccc(C(F)(F)F)cc2)C(=O)N(C)CC(=O)N[C@@H](CCc2ccc(Cl)c(Cl)c2)C(=O)N2C[C@H](OCC)C[C@H]2C(=O)NC2(CC(C)(C)C2)C(=O)N(C)[C@@H](C2CCCC2)C(=O)N(C)[C@H](C(=O)N(C)C)CC(=O)N1C` [PP1932], in test [1], the Kd stood at 0.15 nM. The IC50 in test [2] stood at 13.1 nM. Besides, the “HRAS/KRAS (KD ratio)” value in test [3] is “A (a compound having 10 or more and less than 20 is denoted as A)”. Also, in test [4], the “NRAS/KRAS (KD ratio)” value is “A (a compound having 10 or more and less than 20 is denoted as A)”.

As for `CC[C@H](C)[C@@H]1NC(=O)[C@H](C(C)C)N(C)C(=O)C[C@@H](C(=O)N(C)CC)N(C)C(=O)[C@H](C2CCCC2)N(C)C(=O)C2(CC(C)(C)C2)NC(=O)[C@@H]2C[C@H](C)CN2C(=O)[C@H](CCc2ccc(C(F)(F)F)c(OC)c2)NC(=O)CN(C)C(=O)[C@H](Cc2ccc(C(F)(F)F)cc2)N2CC/C=C\C[C@@H](C2=O)N(C)C(=O)CN(C)C1=O` [PP2003], the Kd in test [1] is 0.34 nM. Further, the IC50 in test [2] is 11.3 nM. Moreover, the “HRAS/KRAS (KD ratio)” value in test [3] is “B (a compound having 3 or more and less than 10 is denoted as B)”. Moreover, in test [4], the “NRAS/KRAS (KD ratio)” value was “A (a compound having 10 or more and less than 20 is denoted as A)”.

As for `CCO[C@@H]1C[C@H]2C(=O)NC3(CCC3)C(=O)N(C)[C@@H](C3CCCC3)C(=O)N(C)[C@H](CC)CC(=O)N(C)[C@@H](CC)C(=O)N[C@@H]([C@@H](C)CC)C(=O)N(C)CC(=O)N(C)[C@H]3C/C=C\CCN(C3=O)[C@@H](Cc3ccc(C(F)(F)F)cc3)C(=O)N(C)CC(=O)N[C@@H](CCc3cc(F)c(C(F)(F)F)c(F)c3)C(=O)N2C1` [PP1625], in test [1], the Kd was 0.29 nM. Moreover, the IC50 in test [2] turned out to be 20.2 nM. Moreover, in test [3], the “HRAS/KRAS (KD ratio)” value was “B (a compound having 3 or more and less than 10 is denoted as B)”. For the same compound, the “NRAS/KRAS (KD ratio)” value in test [4] is “B (a compound having 3 or more and less than 10 is denoted as B)”.

In the case of `CCO[C@@H]1C[C@H]2C(=O)NC3(CC(C)(C)C3)C(=O)N(C)[C@@H](C3CCCC3)C(=O)N(C)[C@H](C(=O)N(C)CC)CC(=O)N(C)[C@@H](CC)C(=O)N[C@@H]([C@@H](C)CC)C(=O)N(C)CC(=O)N(C)[C@H]3C/C=C\CCN(C3=O)[C@@H](Cc3ccc(C(F)(F)F)cc3)C(=O)N(C)CC(=O)N[C@@H](CCc3ccc(C(F)(F)F)c(OC)c3)C(=O)N2C1` [PP1653], the equilibrium dissociation constant (Kd) in test [1] was determined as 0.097 nM. In addition, in test [2], the IC50 was 1.6 nM. Moreover, in test [3], the “HRAS/KRAS (KD ratio)” value was “A (a compound having 10 or more and less than 20 is denoted as A)”. In addition, the “NRAS/KRAS (KD ratio)” value in test [4] was “A (a compound having 10 or more and less than 20 is denoted as A)”.

Turning to `CCO[C@@H]1C[C@H]2C(=O)NC3(CC(C)(C)C3)C(=O)N(C)[C@@H](C3CCCC3)C(=O)N(C)[C@H](C(=O)N(C)C)CC(=O)N(C)[C@@H](CC3CCC3)C(=O)N[C@@H]([C@@H](C)CC)C(=O)N(C)CC(=O)N(C)[C@H]3C/C=C\CCN(C3=O)[C@@H](Cc3ccc(C(F)(F)F)cc3)C(=O)N(C)CC(=O)N[C@@H](CCc3cc(F)c(C(F)(F)F)c(F)c3)C(=O)N2C1` [PP1651], the Kd in test [1] turned out to be 0.079 nM. In addition, the IC50 in test [2] stood at 2.3 nM. Moreover, the “HRAS/KRAS (KD ratio)” value in test [3] is “B (a compound having 3 or more and less than 10 is denoted as B)”. Moreover, the “NRAS/KRAS (KD ratio)” value in test [4] is “A (a compound having 10 or more and less than 20 is denoted as A)”.

As to `CCO[C@@H]1C[C@H]2C(=O)NC3(CC(C)(C)C3)C(=O)N(C)[C@@H](C3CCCC3)C(=O)N(C)[C@H](C(=O)N(C)CC)CC(=O)N(C)[C@@H](CC(F)F)C(=O)N[C@@H]([C@@H](C)CC)C(=O)N(C)CC(=O)N(C)[C@H]3C/C=C\CCN(C3=O)[C@@H](Cc3ccc(C(F)(F)F)cc3)C(=O)N(C)CC(=O)N[C@@H](CCc3ccc(C(F)(F)F)c(OC)c3)C(=O)N2C1` [PP1655], the dissociation constant Kd in test [1] is 0.083 nM. Also, in test [2], the IC50 was 1.6 nM. In addition, the “HRAS/KRAS (KD ratio)” value in test [3] was “A (a compound having 10 or more and less than 20 is denoted as A)”. In addition, the “NRAS/KRAS (KD ratio)” value in test [4] is “A (a compound having 10 or more and less than 20 is denoted as A)”.

Consider `CCCN(C)C(=O)[C@@H]1CC(=O)N(C)[C@@H](COCC)C(=O)N[C@@H]([C@@H](C)CC)C(=O)N(C)CC(=O)N(C)[C@H]2C/C=C\CCN(C2=O)[C@@H](Cc2ccc(C(F)(F)F)cc2)C(=O)N(C)CC(=O)N[C@@H](CCc2ccc(C(F)(F)F)c(OC)c2)C(=O)N2C[C@@H](C)C[C@H]2C(=O)NC2(CC(C)(C)C2)C(=O)N(C)[C@@H](C2CCCC2)C(=O)N1C` [PP1991], for which the equilibrium dissociation constant (Kd) in test [1] was determined as 0.15 nM. Also, in test [2], the IC50 was determined as 10.8 nM. Further, the “HRAS/KRAS (KD ratio)” value in test [3] was “A (a compound having 10 or more and less than 20 is denoted as A)”. For the same compound, the “NRAS/KRAS (KD ratio)” value in test [4] is “A (a compound having 10 or more and less than 20 is denoted as A)”.

Regarding `CCO[C@@H]1C[C@H]2C(=O)NC3(CC(C)(C)C3)C(=O)N(C)[C@@H](C3CCCC3)C(=O)N(C)[C@H](C(=O)N(C)C)CC(=O)N(C)[C@@H](COC)C(=O)N[C@@H]([C@@H](C)CC)C(=O)N(C)CC(=O)N(C)[C@H]3C/C=C\CCN(C3=O)[C@@H](Cc3ccc(C(F)(F)F)cc3)C(=O)N(C)CC(=O)N[C@@H](CCc3ccc(C(F)(F)F)c(Cl)c3)C(=O)N2C1` [PP1753], the Kd in test [1] amounted to 0.038 nM. Besides, in test [2], the IC50 was 5.9 nM. Also, the “HRAS/KRAS (KD ratio)” value in test [3] is “A (a compound having 10 or more and less than 20 is denoted as A)”. Further, the “NRAS/KRAS (KD ratio)” value in test [4] is “A (a compound having 10 or more and less than 20 is denoted as A)”.

Regarding `CCO[C@@H]1C[C@H]2C(=O)NC3(CC(F)(F)C3)C(=O)N(C)[C@@H](C(CC)CC)C(=O)N3CCC[C@@H]3CC(=O)N(C)[C@@H](CC)C(=O)N[C@@H]([C@@H](C)CC)C(=O)N(C)CC(=O)N(C)[C@H]3C/C=C\CCN(C3=O)[C@@H](Cc3ccc(C(F)(F)F)cc3)C(=O)N(C)CC(=O)N[C@@H](CCc3cc(F)c(C(F)(F)F)c(F)c3)C(=O)N2C1` [PP1608], in test [1], the Kd came to 0.67 nM. Besides, the IC50 in test [2] came out at 70.1 nM. For the same compound, the “HRAS/KRAS (KD ratio)” value in test [3] was “A (a compound having 10 or more and less than 20 is denoted as A)”. In addition, the “NRAS/KRAS (KD ratio)” value in test [4] is “A (a compound having 10 or more and less than 20 is denoted as A)”.

Turning to `CC[C@H](C)[C@@H]1NC(=O)[C@H](CC(C)C)N(C)C(=O)C[C@@H](C(=O)N(C)C)N(C)C(=O)[C@H](C2CCCC2)N(C)C(=O)C2(CC(C)(C)C2)NC(=O)[C@@H]2C[C@@H](C)CN2C(=O)[C@H](CCc2ccc(C(F)(F)F)c(OC)c2)NC(=O)CN(C)C(=O)[C@H](Cc2ccc(C)cc2)N2CC/C=C\C[C@@H](C2=O)N(C)C(=O)CN(C)C1=O` [PP1908], the equilibrium dissociation constant (Kd) in test [1] worked out at 0.11 nM. Besides, in test [2], the IC50 turned out to be 10.1 nM. In test [3], the “HRAS/KRAS (KD ratio)” value is “B (a compound having 3 or more and less than 10 is denoted as B)”. Moreover, the “NRAS/KRAS (KD ratio)” value in test [4] is “A (a compound having 10 or more and less than 20 is denoted as A)”.

For `CCCN(C)C(=O)[C@@H]1CC(=O)N(C)[C@@H](C(C)C)C(=O)N[C@@H]([C@@H](C)CC)C(=O)N(C)CC(=O)N(C)[C@H]2C/C=C\CCN(C2=O)[C@@H](Cc2ccc(C(F)(F)F)cc2)C(=O)N(C)CC(=O)N[C@@H](CCc2ccc(C(F)(F)F)c(OC)c2)C(=O)N2C[C@H](OCC)C[C@H]2C(=O)NC2(CCC2)C(=O)N(C)[C@@H](C2CCCC2)C(=O)N1C` [PP2020], in test [1], the Kd is 0.19 nM. For the same compound, the IC50 in test [2] was 8.3 nM. Further, the “HRAS/KRAS (KD ratio)” value in test [3] is “A (a compound having 10 or more and less than 20 is denoted as A)”. In addition, in test [4], the “NRAS/KRAS (KD ratio)” value was “A (a compound having 10 or more and less than 20 is denoted as A)”.

For the origin of these results see patent US20240158446A1, “CYCLIC COMPOUND HAVING SELECTIVE INHIBITORY ACTION ON KRAS OVER HRAS AND NRAS” (CHUGAI SEIYAKU KABUSHIKI KAISHA, priority 2021, published 2024).
